Publication PMC10786919, “Design-rules for stapled peptides with in vivo activity and their application to Mdm2/X antagonists” (Nature Communications, 2024)
Converted amounts (≈) assume the structure as drawn. Positions of bridges follow the written chain, without caps; N, C: chain ends. Non-standard residues stand in square brackets, D forms with d. Residues, ends and D or L forms follow the SMILES beside them. Lys(N3) = [N-]=[N+]=NCCCC[C@H](N)C(=O)O; hArg = N=C(N)NCCCC[C@H](N)C(=O)O; R8 = C=CCCCCCC[C@@](C)(N)C(=O)O; Cba = N[C@@H](CC1CCC1)C(=O)O; S5 = C=CCCC[C@](C)(N)C(=O)O; βAla = NCCC(=O)O

What was measured:
[1] = Experimental LogD (partition coefficient); conditions: for logD: not stated, Partition Coeff LogD
in vitro = conditions: Nanoclick permeability assay EC50
Summary of the method: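 Azido-peptide permeability was read as loss of NanoBRET signal (donor 450 nm, acceptor 610 nm) after adding NanoBret618-azide at 10 μM final.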

[2] = Solubility assay (kinetic solubility, PBS pH 7); format: physicochemical; conditions: pH 7, PBS; for solubility kinetic: pH 7, aqueous buffer, kinetic from dmso stock, read-out: Solubility
Summary of the method: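 Next, measure peak areas of sample and standard. Finally, multiply their ratio by the standard concentration to obtain solubility (µM).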

[3] = Lactate dehydrogenase (LDH) release assay; format: cell-based; conditions: LDH: Cytotoxicity assay: EC50
Summary of the method: (§1)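 Membrane damage measured as lactate dehydrogenase release (CytoTox-ONE kit) from p53-responsive β-lactamase reporter HCT116 cells plated at 8000 per well. Final DMSO 0.5%; geometric mean reported from a minimum of three biological replicates.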

HCT116 cells = assay: Lactate dehydrogenase (LDH) release assay; format: cell-based
Summary of the method: as §1

Row | SMILES | logD [1] | cell entry EC50 (in vitro) [µM] | solubility kinetic [2] [µM] | EPSA (physchem) [A^2] | EC50 [3] [µM] | LDH: Cytotoxicity assay: % Effect (HCT116 cells) [%] | Partition Coeff LogD [1] | Solubility [2]
1 | CC(=O)N[C@@H](CCCCN=[N+]=[N-])C(=O)NCCC(=O)N[C@@H](CC(C)C)C(=O)N[C@H](C(=O)N[C@@H](Cc1ccccc1)C(=O)N[C@]1(C)CCCCCCC=CCCC[C@@](C)(C(=O)N[C@@H](CO)C(=O)N[C@H](C)C(=O)N[C@@H](C)C(N)=O)NC(=O)[C@H](CC2CCC2)NC(=O)[C@H](CCC(N)=O)NC(=O)[C@H](C)NC(=O)[C@H](Cc2c[nH]c3cc(Cl)ccc23)NC(=O)[C@H](Cc2ccc(O)cc2)NC(=O)[C@H](CCC(=O)O)NC1=O)[C@@H](C)O [MP-494] | 3.33 | 0.706 | 86.5 (≈ 173 µg/mL) | 210 | > 50.6 | – | – | –
2 | CC(=O)N[C@@H](CCCCN=[N+]=[N-])C(=O)NCCC(=O)N[C@@H](CC(C)C)C(=O)N[C@H](C(=O)N[C@@H](Cc1ccccc1)C(=O)N[C@]1(C)CCCCCCC=CCCC[C@@](C)(C(=O)N[C@@H](CO)C(=O)N[C@@H](C)C(=O)N[C@@H](C)C(N)=O)NC(=O)[C@H](CC2CCC2)NC(=O)[C@@H]2CCCCNC(=O)CC[C@H](NC1=O)C(=O)N[C@@H](Cc1ccc(O)cc1)C(=O)N[C@@H](Cc1c[nH]c3ccccc13)C(=O)N[C@@H](C)C(=O)N2)[C@@H](C)O [MP-001] (Ac-[Lys(N3)][βAla]LTF[R8]EYWAK[Cba][S5]SAA-NH2; staple 6-13; lactam 7-11) | 3.84 | 1.15 | – | 173 | > 50.7 | – | – | –
3 | CC(=O)N[C@@H](CC(C)C)C(=O)N[C@H](C(=O)N[C@@H](C)C(=O)N[C@]1(C)CCCCCCC=CCCC[C@@](C)(C(=O)N[C@@H](CO)C(=O)N[C@@H](C)C(=O)N[C@H](C)C(N)=O)NC(=O)[C@H](CC2CCC2)NC(=O)[C@H](CC(C)C)NC(=O)[C@H](CCC(N)=O)NC(=O)[C@H](Cc2c[nH]c3ccccc23)NC(=O)[C@H](Cc2ccc(O)cc2)NC(=O)[C@H](CCC(=O)O)NC1=O)[C@@H](C)O [MP-671] (Ac-LTA[R8]EYWQL[Cba][S5]SA[dA]-NH2; staple 4-11) | 2.27 | – | 74.3 (≈ 127 µg/mL) | 199 | > 50.6 | 3.06 | – | –
4 | CC(=O)N[C@@H](CCCCN=[N+]=[N-])C(=O)NCCC(=O)N[C@@H](CC(C)C)C(=O)N[C@H](C(=O)N[C@@H](Cc1ccccc1)C(=O)N[C@]1(C)CCCCCCC=CCCC[C@@](C)(C(=O)N[C@H](C)C(=O)N[C@@H](C)C(=O)N[C@@H](C)C(N)=O)NC(=O)[C@H](CC2CCC2)NC(=O)[C@H](CCC(N)=O)NC(=O)[C@H](C)NC(=O)[C@H](Cc2c[nH]c3ccccc23)NC(=O)[C@H](Cc2ccc(O)cc2)NC(=O)[C@H](CCC(=O)O)NC1=O)[C@@H](C)O [MP-475] (Ac-[Lys(N3)][βAla]LTF[R8]EYWAQ[Cba][S5][dA]AA-NH2; staple 6-13) | 2.92 | 0.155 | 17 (≈ 33.2 µg/mL) | 224 | > 50 | – | – | –
5 | CC(=O)N[C@@H](CC(C)C)C(=O)N[C@H](C(=O)N[C@@H](Cc1ccccc1)C(=O)NC(C)(C)C(=O)N[C@@H](CCC(=O)O)C(=O)N[C@@H](Cc1ccc(O)cc1)C(=O)N[C@@H](Cc1c[nH]c2ccccc12)C(=O)N[C@@H](CCC(N)=O)C(=O)N[C@H](CC(C)C)C(=O)N[C@@H](CC1CCC1)C(=O)NC(C)(C)C(=O)N[C@@H](CO)C(=O)N[C@@H](C)C(=O)N[C@@H](C)C(N)=O)[C@@H](C)O [MP-788] | 2.06 | – | 83.5 (≈ 139 µg/mL) | 196 | > 50.6 | 8.3 | – | –
6 | CC(=O)N[C@@H](CC(C)C)C(=O)N[C@H](C(=O)N[C@@H](Cc1ccccc1)C(=O)NC(C)(C)C(=O)N[C@@H](CCC(=O)O)C(=O)N[C@@H](Cc1ccc(O)cc1)C(=O)N[C@@H](Cc1c[nH]c2ccccc12)C(=O)N[C@H](CCC(N)=O)C(=O)N[C@@H](CC(C)C)C(=O)N[C@@H](CC1CCC1)C(=O)NC(C)(C)C(=O)N[C@@H](CO)C(=O)N[C@@H](C)C(=O)N[C@@H](C)C(N)=O)[C@@H](C)O [MP-786] | 1.99 | – | 170 (≈ 283 µg/mL) | 187 | > 50.6 | 7.785 | – | –
7 | CC(=O)N[C@H](CC(C)C)C(=O)N[C@H](C(=O)N[C@@H](Cc1ccccc1)C(=O)N[C@]1(C)CCCCCCC=CCCC[C@@](C)(C(=O)N[C@@H](CO)C(=O)N[C@H](C)C(=O)N[C@@H](C)C(N)=O)NC(=O)[C@H](CC2CCC2)NC(=O)[C@H](CC(C)C)NC(=O)[C@H](CCC(N)=O)NC(=O)[C@H](Cc2c[nH]c3ccccc23)NC(=O)[C@H](Cc2ccc(O)cc2)NC(=O)[C@H](CCC(=O)O)NC1=O)[C@@H](C)O [MP-7201] | 2.8 | – | 19 (≈ 34 µg/mL) | 191 | > 50 | 4.51 | – | –
8 | CC(=O)N[C@@H](CC(C)C)C(=O)N[C@H](C(=O)N[C@@H](Cc1ccccc1)C(=O)N[C@]1(C)CCCCCCC=CCCC[C@@](C)(C(=O)N[C@@H](CO)C(=O)N[C@@H](C)C(=O)N[C@@H](C)C(N)=O)NC(=O)[C@H](CC2CCC2)NC(=O)[C@H](CC(C)C)NC(=O)[C@H](CCC(N)=O)NC(=O)[C@@H](Cc2c[nH]c3ccccc23)NC(=O)[C@H](Cc2ccc(O)cc2)NC(=O)[C@H](CCC(=O)O)NC1=O)[C@@H](C)O [MP-594] | 2.83 | – | 11 (≈ 19.7 µg/mL) | 203 | 14.8 | 35.22 | – | –
9 | CC(=O)N[C@H](CC(C)C)C(=O)N[C@H](C(=O)N[C@@H](Cc1ccccc1)C(=O)NC(C)(C)C(=O)N[C@@H](CCC(=O)O)C(=O)N[C@@H](Cc1ccc(O)cc1)C(=O)N[C@@H](Cc1c[nH]c2ccccc12)C(=O)N[C@@H](CCC(N)=O)C(=O)N[C@@H](CC(C)C)C(=O)N[C@@H](CC1CCC1)C(=O)NC(C)(C)C(=O)N[C@@H](CO)C(=O)N[C@@H](C)C(=O)N[C@@H](C)C(N)=O)[C@@H](C)O [MP-787] | 2.16 | – | 24 (≈ 40 µg/mL) | 190 | > 50.6 | 4.125 | – | –
10 | CC(=O)N[C@@H](CC(C)C)C(=O)N[C@H](C(=O)N[C@@H](Cc1ccccc1)C(=O)N[C@]1(C)CCCCCCC=CCCC[C@@](C)(C(=O)N[C@@H](CO)C(=O)N[C@@H](C)C(=O)N[C@@H](C)C(N)=O)NC(=O)[C@H](CC2CCC2)NC(=O)[C@H](CC(C)C)NC(=O)[C@H](CCC(N)=O)NC(=O)[C@H](C)NC(=O)[C@H](Cc2ccc(O)cc2)NC(=O)[C@H](CCC(=O)O)NC1=O)[C@@H](C)O [MP-364] (Ac-LTF[R8]EYAQL[Cba][S5]SAA-NH2; staple 4-11) | – | – | – | 196 | 16 | 68.78 | Poorly Behaved | Poorly Behaved
11 | CC(=O)N[C@@H](CCCCN=[N+]=[N-])C(=O)NCCC(=O)N[C@@H](CCCCNC(=N)N)C(=O)N[C@H](C(=O)N[C@@H](Cc1ccccc1)C(=O)N[C@]1(C)CCCCCCC=CCCC[C@@](C)(C(=O)N[C@@H](CO)C(=O)N[C@@H](C)C(=O)N[C@@H](C)C(N)=O)NC(=O)[C@H](CC2CCC2)NC(=O)[C@H](CCC(N)=O)NC(=O)[C@H](C)NC(=O)[C@H](Cc2c[nH]c3ccccc23)NC(=O)[C@H](Cc2ccc(O)cc2)NC(=O)[C@H](CCC(=O)O)NC1=O)[C@@H](C)O [MP-6896] (Ac-[Lys(N3)][βAla][hArg]TF[R8]EYWAQ[Cba][S5]SAA-NH2; staple 6-13) | 2.79 | 1.13 | 2.5 (≈ 5.07 µg/mL) | 203 | – | – | – | –
12 | CC(=O)N[C@@H](C)C(=O)N[C@@H](C)C(=O)N[C@@H](C)C(=O)N[C@@H](C)C(=O)N[C@@H](CC(C)C)C(=O)N[C@H](C(=O)N[C@@H](Cc1ccccc1)C(=O)N[C@]1(C)CCCCCCC=CCCC[C@@](C)(C(=O)N[C@@H](CO)C(=O)N[C@@H](C)C(=O)N[C@@H](C)C(N)=O)NC(=O)[C@H](CC2CCC2)NC(=O)[C@H](CCC(N)=O)NC(=O)[C@H](C)NC(=O)[C@H](Cc2c[nH]c3ccccc23)NC(=O)[C@H](Cc2ccc(O)cc2)NC(=O)[C@H](CCC(=O)O)NC1=O)[C@@H](C)O [MP-360] | 3.24 | – | 24.7 (≈ 50.1 µg/mL) | 219 | > 50.6 | 2.492 | – | –
13 | CC(=O)N[C@H](C)C(=O)N[C@H](C)C(=O)N[C@H](C)C(=O)N[C@H](C)C(=O)N[C@@H](CC(C)C)C(=O)N[C@H](C(=O)N[C@@H](Cc1ccccc1)C(=O)N[C@]1(C)CCCCCCC=CCCC[C@@](C)(C(=O)N[C@@H](CO)C(=O)N[C@@H](C)C(=O)N[C@@H](C)C(N)=O)NC(=O)[C@H](CC2CCC2)NC(=O)[C@H](CCC(N)=O)NC(=O)[C@H](C)NC(=O)[C@H](Cc2c[nH]c3ccccc23)NC(=O)[C@H](Cc2ccc(O)cc2)NC(=O)[C@H](CCC(=O)O)NC1=O)[C@@H](C)O [MP-365] | 2.6 | – | 76.3 (≈ 155 µg/mL) | 210 | > 50.6 | -0.1776 | – | –
14 | CC(=O)N(C)CC(=O)N(C)CC(=O)N(C)CC(=O)N(C)CC(=O)N[C@@H](CC(C)C)C(=O)N[C@H](C(=O)N[C@@H](Cc1ccccc1)C(=O)N[C@]1(C)CCCCCCC=CCCC[C@@](C)(C(=O)N[C@@H](CO)C(=O)N[C@@H](C)C(=O)N[C@@H](C)C(N)=O)NC(=O)[C@H](CC2CCC2)NC(=O)[C@H](CCC(N)=O)NC(=O)[C@H](C)NC(=O)[C@H](Cc2c[nH]c3ccccc23)NC(=O)[C@H](Cc2ccc(O)cc2)NC(=O)[C@H](CCC(=O)O)NC1=O)[C@@H](C)O [MP-361] | 2.52 | – | 70.7 (≈ 143 µg/mL) | 212 | > 50.6 | 2.48 | – | –
